In patent US20220306630A1, “AGONISTS OF ROR GAMMAt” (BRISTOL-MYERS SQUIBB COMPANY, priority 2019, published 2022):
pEC50: −log10 of the molar value.

molecular target: T1, RORgT (Homo sapiens, UniProt P51449); experiment: RORgT Gal4 Luciferase Reporter Gene Assay; assay type: cell-based; conditions: engineered Jurkat cells overexpressing RORgT (LBD or full length) with Gal4 Luc reporter; 18 hours at 37° C.; 40 μM to 0.67 nM; read-out: RORg_GAL4 EC50
T1 construct: Gal4 (fusion partner); expressed in transfected cells; host or cells: engineered Jurkat cells (Jurkat pEx/Gal/hRORγ CLBD/HYG pG5luc/blast)
T1 sequence (P51449 267-516): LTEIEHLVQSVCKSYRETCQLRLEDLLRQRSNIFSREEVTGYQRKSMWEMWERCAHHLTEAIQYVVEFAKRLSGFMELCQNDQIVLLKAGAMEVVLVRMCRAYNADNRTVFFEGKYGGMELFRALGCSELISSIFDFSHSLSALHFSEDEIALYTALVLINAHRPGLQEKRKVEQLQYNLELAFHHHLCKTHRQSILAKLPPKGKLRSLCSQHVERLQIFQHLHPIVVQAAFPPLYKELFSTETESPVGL
Procedure, shortened: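 Cells exposed to compound 18 hours at 37° C, then lysed for luciferase luminescence. Inhibition of constitutive activity expressed as percent reduction of signal window relative to a control compound.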

SMILES	pEC50
COc1ccc(Oc2c(Cl)cc(NC(=O)C3CC3)cc2Cl)cc1C(C)C [Example 292]	6.03
COc1ccc(Oc2c(Cl)cc(NC(=O)c3ccc(S(C)(=O)=O)cc3)cc2Cl)cc1C(C)C [Example 293]	5.49
COc1ccc(Oc2c(Cl)cc(NC(=O)c3cnccn3)cc2Cl)cc1C(C)C [Example 294]	5.34
COC(=O)CCC(=O)Nc1cc(Cl)c(Oc2ccc(OC)c(C(C)C)c2)c(Cl)c1 [Example 295]	6.51
COc1ccc(Oc2c(Cl)cc(NC(=O)CCN3CCOCC3)cc2Cl)cc1C(C)C [Example 296]	6.00
COc1ccc(Oc2c(Cl)cc(NC(=O)CCn3ccnc3)cc2Cl)cc1C(C)C [Example 297]	7.36
COc1ccc(Oc2c(Cl)cc(NC(=O)CCCN3CCOCC3)cc2Cl)cc1C(C)C [Example 298]	6.14
COc1ccc(Oc2c(Cl)cc(NC(=O)c3ccccc3)cc2Cl)cc1C(C)C [Example 299]	4.70
COCCC(=O)Nc1cc(Cl)c(Oc2ccc(OC)c(C(C)C)c2)c(Cl)c1 [Example 300]	6.23
COc1ccc(Oc2c(Cl)cc(NC(=O)CC#N)cc2Cl)cc1C(C)C [Example 301]	6.46
COc1ccc(Oc2c(Cl)cc(NC(=O)Cn3ccnc3)cc2Cl)cc1C(C)C [Example 302]	6.73
CCCS(=O)(=O)Nc1cc(Cl)c(Oc2ccc(OC)c(C(C)C)c2)c(Cl)c1 [Example 303]	6.07
COc1ccc(Oc2c(Cl)cc(NS(=O)(=O)C3CC3)cc2Cl)cc1C(C)C [Example 304]	5.97
COc1ccc(Oc2c(Cl)cc(NS(=O)(=O)C(C)C)cc2Cl)cc1C(C)C [Example 305]	6.38
CCNC(=O)Nc1cc(Cl)c(Oc2ccc(OC)c(C(C)C)c2)c(Cl)c1 [Example 306]	5.72
CCS(=O)(=O)c1ccc(CC(=O)Nc2cc(Cl)c(Oc3ccc(OC)c(C(C)C)c3)c(Cl)c2)cc1 [Example 307]	7.80
COc1ccc(Oc2c(Cl)cc3[nH]c(Cc4ccccc4)nc3c2Cl)cc1C(C)C [Example 308]	5.89
COc1ccc(Oc2c(Cl)cc3[nH]c(Cc4cccnc4)nc3c2Cl)cc1C(C)C [Example 309]	6.39
CCc1cc(Oc2c(Cl)cc(NC(=O)Cc3cccnc3)cc2Cl)ccc1OC [Example 310]	6.53

SMILES	pEC50
COc1ccc(Oc2c(Cl)cc(NC(=O)Cc3cccnc3)cc2Cl)cc1CC(C)C [Example 311]	6.82
COc1ccc(Oc2c(F)cc(NC(=O)Cc3cccnc3)cc2F)cc1CC(C)C [Example 312]	5.84
CCS(=O)(=O)N1CCN(CC(=O)Nc2cc(Cl)c(Oc3ccc(OC)c(C(C)C)c3)c(Cl)c2)CC1 [Example 313]	7.49
COc1ccc(Oc2c(Cl)cc(NC(=O)CC3CCCN(S(N)(=O)=O)C3)cc2Cl)cc1C(C)C (stereo not shown) [Example 314]	6.07
COc1ccc(Oc2c(Cl)cc(NC(=O)CN3CCN(S(=O)(=O)C4CC4)CC3)cc2Cl)cc1C(C)C [Example 315]	7.06
COc1ccc(Oc2c(Cl)cc(NC(=O)CC3CCCN(S(=O)(=O)C(C)C)C3)cc2Cl)cc1C(C)C (stereo not shown) [Example 316]	6.03
COc1ccc(Oc2c(Cl)cc(NC(=O)CC3CCCN(S(=O)(=O)C4CC4)C3)cc2Cl)cc1C(C)C (stereo not shown) [Example 317]	7.02
COc1ccc(Oc2c(Cl)cc(NC(=O)C[C@H]3CCCN(S(=O)(=O)C4CC4)C3)cc2Cl)cc1C(C)C [Example 318]	7.12
CCS(=O)(=O)N1CCC(CC(=O)Nc2cc(Cl)c(Oc3ccc(OC)c(C(C)C)c3)c(Cl)c2)CC1 [Example 319]	7.48
COc1ccc(Oc2c(Cl)cc(NC(=O)CC3CCN(S(=O)(=O)C4CC4)CC3)cc2Cl)cc1C(C)C [Example 320]	6.75
COc1ccc(Oc2c(Cl)cc(NC(=O)C[C@H]3CCCN(S(=O)(=O)C(C)C)C3)cc2Cl)cc1C(C)C [Example 321]	6.83
CCS(=O)(=O)N1CCCC(CC(=O)Nc2cc(Cl)c(Oc3ccc(OC)c(C(C)C)c3)c(Cl)c2)C1 (stereo not shown) [Example 322]	6.90
CCS(=O)(=O)N1CCC[C@H](CC(=O)Nc2cc(Cl)c(Oc3ccc(OC)c(C(C)C)c3)c(Cl)c2)C1 [Example 323]	7.04
CC(C)c1cc(Oc2c(Cl)cc(NC(=O)Cc3cccnc3)cc2Cl)ccc1C1CC1 [Example 324]	6.67
CC(C)(F)c1cc(F)cc(Oc2c(Cl)cc(NC(=O)Cc3ccc(S(C)(=O)=O)cc3)cc2Cl)c1 [Example 325]	8.14
NS(=O)(=O)c1ccc(CNC(=O)c2ccc(Cl)c(Oc3cc(F)cc(CCC(F)(F)F)c3)c2Cl)cc1 [Example 326]	8.00
CS(=O)(=O)N1CC2(CCN(C(=O)c3ccc(Cl)c(Oc4cc(F)cc(CCC(F)(F)F)c4)c3Cl)CC2)C1 [Example 327]	7.05
CC(C)c1cc(F)cc(Oc2c(Cl)cc(NC(=O)Cc3cccc(S(C)(=O)=O)c3)cc2Cl)c1 [Example 328]	7.72

More lines, now with the values ahead:

pEC50	SMILES
7.49	CC(C)c1cc(F)cc(Oc2c(Cl)cc(NC(=O)Cc3ccc(S(C)(=O)=O)cc3)cc2Cl)c1 [Example 329]
6.63	CC(C)c1cc(F)cc(Oc2c(Cl)cc(NC(=O)CC3CC(=O)NC(=O)C3)cc2Cl)c1 [Example 330]
6.94	CC(C)c1cc(F)cc(Oc2c(Cl)cc(NC(=O)CN3CCC(S(C)(=O)=O)CC3)cc2Cl)c1 [Example 331]
8.12	CC(C)c1cc(F)cc(Oc2c(Cl)cc(NC(=O)CN3CCN(S(C)(=O)=O)CC3)cc2Cl)c1 [Example 332]
8.09	CC(C)(F)c1cc(F)cc(Oc2c(Cl)cc(NC(=O)CC3CCN(S(C)(=O)=O)CC3)cc2Cl)c1 [Example 333]
8.18	CC(C)(F)c1cc(F)cc(Oc2c(Cl)cc(NC(=O)CN3CCN(S(C)(=O)=O)CC3)cc2Cl)c1 [Example 334]
6.14	COc1ccc(Oc2c(Cl)cc(NC(=O)Cc3cccnc3)cc2Cl)cc1C(C)(C)O [Example 335]
7.85	COc1ccc(Oc2c(Cl)cc(NC(=O)Cc3ccc(S(C)(=O)=O)cc3)cc2Cl)cc1C(C)(C)F [Example 336]
7.82	CC(C)(F)c1cc(F)cc(Oc2c(Cl)ccc(C(=O)NCc3ccc(S(N)(=O)=O)cc3)c2Cl)c1 [Example 337]
8.74	CC(C)(F)c1cc(F)cc(Oc2c(Cl)ccc(C(=O)NCc3ccc(S(C)(=O)=O)cc3)c2Cl)c1 [Example 338]
6.01	COc1ccc(Oc2c(Cl)cc(NC(=O)[C@H]3CC[C@@H](C(=O)OC)CC3)cc2Cl)cc1C(C)C [Example 339]
5.26	COc1ccc(Oc2c(Cl)cc(NC(=O)CCC(=O)O)cc2Cl)cc1C(C)C [Example 340]
7.12	COc1ccc(Oc2c(Cl)ccc(C(=O)N3CCC4(CC3)CN(C=O)C4)c2Cl)cc1C(C)C [Example 341]
6.87	COc1ccc(Oc2c(Cl)cc(NC(=O)Cc3cncnc3)cc2Cl)cc1C(C)C [Example 342]
7.17	COc1ccc(Oc2c(Cl)cc(NC(=O)Cc3ccc(Cl)nc3)cc2Cl)cc1C(C)C [Example 343]
7.12	COc1ccc(Oc2c(Cl)cc(NC(=O)Cc3ccc(C)nc3)cc2Cl)cc1C(C)C [Example 344]
6.91	COc1ccc(Oc2c(Cl)cc(NC(=O)Cc3cccnc3Cl)cc2Cl)cc1C(C)C [Example 345]
6.09	COc1ccc(Oc2c(Cl)cc(NC(=O)C3(c4cnccn4)CC3)cc2Cl)cc1C(C)C [Example 346]
5.74	COc1ccc(Oc2c(Cl)cc(NC(=O)c3c[nH]c4ncncc34)cc2Cl)cc1C(C)C [Example 347]
6.43	COc1ccc(Oc2c(Cl)cc(NC(=O)C3(c4cccnc4)CCCCC3)cc2Cl)cc1C(C)C [Example 348]
5.86	COc1ccc(Oc2c(Cl)cc(NC(=O)c3c[nH]c4ncccc34)cc2Cl)cc1C(C)C [Example 349]
5.69	COc1ccc(Oc2c(Cl)cc(N)cc2Cl)cc1C(C)C [Example 350]
8.24	CC(c1cc(F)cc(Oc2c(Cl)cc(NC(=O)CC3CCN(S(C)(=O)=O)CC3)cc2Cl)c1)C(F)(F)F (stereo not shown) [Example 351]
7.82	CC(c1cc(F)cc(Oc2c(Cl)cc(NC(=O)CC3CCN(S(C)(=O)=O)CC3)cc2Cl)c1)C(F)(F)F (stereo not shown) [Example 352]
7.85	CC(c1cc(F)cc(Oc2c(Cl)cc(NC(=O)Cc3ccc(S(C)(=O)=O)cc3)cc2Cl)c1)C(F)(F)F (stereo not shown) [Example 353]
8.46	CC(c1cc(F)cc(Oc2c(Cl)cc(NC(=O)Cc3ccc(S(C)(=O)=O)cc3)cc2Cl)c1)C(F)(F)F (stereo not shown) [Example 354]
7.80	CC(c1cc(F)cc(Oc2c(Cl)ccc(C(=O)NCc3ccc(S(N)(=O)=O)cc3)c2Cl)c1)C(F)(F)F (stereo not shown) [Example 355]
7.77	CC(c1cc(F)cc(Oc2c(Cl)ccc(C(=O)NCc3ccc(S(N)(=O)=O)cc3)c2Cl)c1)C(F)(F)F (stereo not shown) [Example 356]
7.96	CC(c1cc(F)cc(Oc2c(Cl)ccc(C(=O)N3CCC4(CC3)CN(S(C)(=O)=O)C4)c2Cl)c1)C(F)(F)F (stereo not shown) [Example 357]
8.18	C=C(C)c1cc(F)cc(Oc2c(Cl)cc(NC(=O)CC3CCN(S(C)(=O)=O)CC3)cc2Cl)c1 [Example 358]
